In patent US8486939B2, “Pyrimidinyl and 1,3,5-triazinyl benzimidazoles and their use in cancer therapy” (Pathway Therapeutics Inc., priority 2009, dated 2013):
Structures can show the parent of a compound that is named as a salt.

How the values were obtained:
p110α/p85 = p110α/p85 (Homo sapiens, UniProt P42336); test: Inhibition of isolated enzyme (lipid kinase assay, [γ33P]ATP, TLC); format: biochemical; conditions: recombinant enzyme, 100 μM ATP, 1 hr room temperature, average of two experiments
Protocol: (§1) Compounds were evaluated for their ability to inhibit Class I PI 3-kinase enzymes p110δ/p85, p110α/p85, and p110β/p85. Reaction mixtures comprising 0.1 μg of a recombinant enzyme, 10 μg of L-α-phosphatidylinositol, and 2× Lipid Kinase Buffer (40 mM Tris-HCl, pH 7.4, 200 mM NaCl, 1 mM EDTA), which contains either DMSO only as a control or the test compound in DMSO (the final DMSO concentration is 1%), were activated by the addition of an ATP mix (5 mM MgCl2, 100 μM ATP, and 0.1 μL [γ^33P]ATP). Reactions were incubated at room temperature for 1 hr, and then stopped by the addition of 1M HCl. The lipids were then extracted using a two step procedure. Firstly, 200 μL of chloroform/methanol (1:1) was added, the biphasic reactions mixed and centrifuged briefly, and the inorganic phase was removed and discarded. Following this, 80 μL of methanol:HCl (1:1) was added and the same procedure followed. The organic phase (70 μL) was then transferred to a clean 1.6 mL tube and the reactions were dried using a Speedvac, with no heating, for […]. The reactions were spotted onto TLC plates (Merck Ltd) and developed for 1 hr in propanol-1:2 M acetic acid (13:7). The TLC plates were then dried at room temperature and quantified using a phosphorimager (StormImager, Amersham). Nine compound concentrations were used for each test compound to determine its IC50 value. Each experiment was performed twice and the average IC50 value is used herein.

p110δ/p85 = p110δ/p85 (Homo sapiens, UniProt O00329); test: as above; format: biochemical; conditions: recombinant enzyme, 100 μM ATP, 1 hr room temperature, average of two experiments
Protocol: as §1

Sequence of p110δ/p85 (O00329 whole entry, species assumed): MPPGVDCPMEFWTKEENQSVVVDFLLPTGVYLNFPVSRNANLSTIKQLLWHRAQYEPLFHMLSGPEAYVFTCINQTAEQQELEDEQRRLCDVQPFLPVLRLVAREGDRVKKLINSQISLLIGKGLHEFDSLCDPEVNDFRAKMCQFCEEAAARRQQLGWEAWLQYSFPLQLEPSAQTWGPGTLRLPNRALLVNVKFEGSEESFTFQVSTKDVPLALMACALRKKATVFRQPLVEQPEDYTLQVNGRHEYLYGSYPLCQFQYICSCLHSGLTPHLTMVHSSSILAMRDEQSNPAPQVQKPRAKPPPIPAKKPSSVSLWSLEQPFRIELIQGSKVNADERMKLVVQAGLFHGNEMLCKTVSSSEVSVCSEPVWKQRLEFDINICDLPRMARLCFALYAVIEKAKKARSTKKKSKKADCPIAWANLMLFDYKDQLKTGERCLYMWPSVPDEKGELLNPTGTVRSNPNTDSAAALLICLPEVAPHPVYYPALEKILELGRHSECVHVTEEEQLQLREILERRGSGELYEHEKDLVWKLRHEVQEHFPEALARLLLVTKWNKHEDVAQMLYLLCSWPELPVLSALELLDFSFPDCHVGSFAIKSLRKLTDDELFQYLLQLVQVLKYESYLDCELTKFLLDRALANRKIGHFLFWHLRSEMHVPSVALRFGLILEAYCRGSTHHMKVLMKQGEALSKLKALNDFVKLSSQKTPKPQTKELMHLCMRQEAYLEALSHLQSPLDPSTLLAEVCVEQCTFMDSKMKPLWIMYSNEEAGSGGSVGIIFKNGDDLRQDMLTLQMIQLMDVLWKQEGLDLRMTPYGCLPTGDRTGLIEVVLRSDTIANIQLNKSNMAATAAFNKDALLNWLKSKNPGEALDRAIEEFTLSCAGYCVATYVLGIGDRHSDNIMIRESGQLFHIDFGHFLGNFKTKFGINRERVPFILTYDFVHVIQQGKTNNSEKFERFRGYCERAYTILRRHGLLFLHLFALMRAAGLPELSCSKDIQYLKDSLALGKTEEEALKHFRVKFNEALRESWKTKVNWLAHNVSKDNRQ
Sequence of p110δ/p85 (P27986 whole entry partner, species assumed): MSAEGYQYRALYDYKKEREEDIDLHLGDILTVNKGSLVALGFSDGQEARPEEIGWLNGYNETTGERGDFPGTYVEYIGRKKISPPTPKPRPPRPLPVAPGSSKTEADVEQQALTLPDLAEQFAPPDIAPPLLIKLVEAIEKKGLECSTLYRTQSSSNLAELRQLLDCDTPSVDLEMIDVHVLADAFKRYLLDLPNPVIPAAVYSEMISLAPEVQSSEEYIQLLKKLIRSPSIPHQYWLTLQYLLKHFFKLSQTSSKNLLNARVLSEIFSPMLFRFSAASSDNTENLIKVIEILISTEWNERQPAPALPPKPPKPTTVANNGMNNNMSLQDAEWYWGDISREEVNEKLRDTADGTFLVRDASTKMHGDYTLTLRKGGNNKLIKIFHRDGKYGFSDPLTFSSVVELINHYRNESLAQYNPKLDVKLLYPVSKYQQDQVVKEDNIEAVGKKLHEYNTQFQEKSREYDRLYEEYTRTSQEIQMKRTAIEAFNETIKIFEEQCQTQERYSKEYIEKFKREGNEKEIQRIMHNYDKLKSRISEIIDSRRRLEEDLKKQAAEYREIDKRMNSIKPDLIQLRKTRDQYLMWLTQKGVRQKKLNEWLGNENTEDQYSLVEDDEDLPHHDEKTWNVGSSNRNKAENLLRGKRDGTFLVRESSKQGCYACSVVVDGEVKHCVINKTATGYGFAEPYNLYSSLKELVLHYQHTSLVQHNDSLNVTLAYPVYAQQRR
Sequence of p110α/p85 (P42336 whole entry): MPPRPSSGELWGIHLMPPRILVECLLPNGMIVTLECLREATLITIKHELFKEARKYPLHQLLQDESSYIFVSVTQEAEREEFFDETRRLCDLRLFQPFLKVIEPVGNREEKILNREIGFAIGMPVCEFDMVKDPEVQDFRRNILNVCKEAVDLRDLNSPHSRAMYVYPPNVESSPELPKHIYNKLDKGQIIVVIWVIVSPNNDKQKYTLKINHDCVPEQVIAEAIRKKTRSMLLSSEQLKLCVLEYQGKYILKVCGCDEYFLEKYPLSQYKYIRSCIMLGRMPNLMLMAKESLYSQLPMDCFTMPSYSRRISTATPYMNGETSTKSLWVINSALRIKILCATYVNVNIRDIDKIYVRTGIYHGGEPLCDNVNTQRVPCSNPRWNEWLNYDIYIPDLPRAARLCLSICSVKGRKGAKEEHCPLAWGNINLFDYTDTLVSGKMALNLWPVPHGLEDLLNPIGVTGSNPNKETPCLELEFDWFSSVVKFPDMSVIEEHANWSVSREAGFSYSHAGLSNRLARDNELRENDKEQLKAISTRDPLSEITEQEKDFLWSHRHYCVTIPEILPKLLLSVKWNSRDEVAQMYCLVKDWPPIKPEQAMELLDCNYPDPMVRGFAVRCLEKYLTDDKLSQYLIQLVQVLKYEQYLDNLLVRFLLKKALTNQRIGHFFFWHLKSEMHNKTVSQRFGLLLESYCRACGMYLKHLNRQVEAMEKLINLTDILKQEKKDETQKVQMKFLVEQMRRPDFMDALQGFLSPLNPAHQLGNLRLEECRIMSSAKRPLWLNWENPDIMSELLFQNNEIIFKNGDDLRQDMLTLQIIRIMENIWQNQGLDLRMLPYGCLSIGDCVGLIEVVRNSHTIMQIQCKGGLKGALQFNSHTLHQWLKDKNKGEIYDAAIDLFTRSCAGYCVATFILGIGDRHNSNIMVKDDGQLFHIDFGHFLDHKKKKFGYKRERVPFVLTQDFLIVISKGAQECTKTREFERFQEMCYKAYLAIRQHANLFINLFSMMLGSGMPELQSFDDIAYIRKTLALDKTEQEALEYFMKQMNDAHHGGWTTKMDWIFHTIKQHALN
Sequence of p110α/p85 (P27986 whole entry partner): as the sequence (P27986 whole entry partner, species assumed) above

Row | Structure (SMILES) | IC50 (p110α/p85) | IC50 (p110δ/p85) | melting point
1 | COc1cc(N)cc2c1nc(C(F)F)n2-c1nc(-c2cn[nH]c2)nc(N2CCOCC2)n1 [Example 66, 2-(Difluoromethyl)-4-methoxy-1-[4-(4-morpholinyl)-6-(1H-pyrazol-4-yl)-1,3,5-triazin-2-yl]-1H-benzimidazol-6-ylamine] | < 100 nM | < 100 nM | –
2 | COc1cccc2c1nc(C(F)F)n2-c1nc(N2CCOCC2)nc2c1ncn2-c1cccnc1 [Example 61, 6-[2-(Difluoromethyl)-4-methoxy-1H-benzimidazol-1-yl]-2-(4-morpholinyl)-9-(3-pyridinyl)-9H-purine] | – | – | 206 to 209 °C
3 | COc1cc(N)cc2c1nc(C(F)F)n2-c1nc(-c2ccn(C)n2)nc(N2CCOCC2)n1 [Example 65, 2-(Difluoromethyl)-4-methoxy-1-[4-(1-methyl-1H-pyrazol-3-yl)-6-(4-morpholinyl)-1,3,5-triazin-2-yl]-1H-benzimidazol-6-ylamine] | < 100 nM | < 100 nM | –
4 | COc1cc(N)cc2c1nc(C(F)F)n2-c1nc(-c2cn[nH]c2)nc(N2CCOCC2)n1 (as salt: methanesulfonate) [Example 66, 2-(Difluoromethyl)-4-methoxy-1-[4-(4-morpholinyl)-6-(1H-pyrazol-4-yl)-1,3,5-triazin-2-yl]-1H-benzimidazol-6-ylamine] | – | – | > 300 °C
5 | COc1cccc2c1nc(C(F)F)n2-c1nc(-c2cn[nH]c2)nc(N2CCOCC2)n1 [Example 50, 2-(Difluoromethyl)-4-methoxy-1-[4-(4-morpholinyl)-6-(1H-pyrazol-4-yl)-1,3,5-triazin-2-yl]-1H-benzimidazole] | – | – | 289 to 291 °C
6 | COc1cccc2c1nc(C(F)F)n2-c1nc(-c2cccnc2)cc(N2CCOCC2)n1 [Example 52, 2-(difluoromethyl)-4-methoxy-1-[4-(4-morpholinyl)-6-(3-pyridinyl)-2-pyrimidinyl]-1H-benzimidazole] | < 100 nM | < 100 nM | 208 to 210 °C
7 | COc1cc(N)cc2c1nc(C(F)F)n2-c1nc(-c2ccn(C)n2)nc(N2CCOCC2)n1 (as salt: methanesulfonate) [Example 65, 2-(Difluoromethyl)-4-methoxy-1-[4-(1-methyl-1H-pyrazol-3-yl)-6-(4-morpholinyl)-1,3,5-triazin-2-yl]-1H-benzimidazol-6-ylamine] | – | – | > 300 °C
8 | COc1ccc(-c2cc(N3CCOCC3)nc(-n3c(C(F)F)nc4ccccc43)n2)cn1 [Example 53] | – | – | 224 to 226 °C
9 | COc1cc(N)cc2c1nc(C(F)F)n2-c1nc(-c2cccnc2)cc(N2CCOCC2)n1 [Example 68, 2-(Difluoromethyl)-4-methoxy-1-[4-(4-morpholinyl)-6-(3-pyridinyl)-2-pyrimidinyl]-1H-benzimidazol-6-ylamine] | < 100 nM | < 100 nM | –
10 | COc1cccc2c1nc(C(F)F)n2-c1nc(-c2ccc(N)nc2)nc(N2CCOCC2)n1 [Example 49, 5-[4-[2-(difluoromethyl)-4-methoxy-1H-benzimidazol-1-yl]-6-(4-morpholinyl)-1,3,5-triazin-2-yl]-2-pyridinamine] | < 100 nM | < 100 nM | 259 to 261 °C
11 | COc1cccc2c1nc(C(F)F)n2-c1nc(-c2cccnc2)nc(N2CCOCC2)n1 [Example 48, 2-(difluoromethyl)-4-methoxy-1-[4-(4-morpholinyl)-6-(3-pyridinyl)-1,3,5-triazin-2-yl]-1H-benzimidazole] | < 100 nM | < 100 nM | 208 to 210 °C
12 | COc1cccc2c1nc(C(F)F)n2-c1nc(Nc2cnc(N(C)CCCN(C)C)nc2)nc(N2CCOCC2)n1 [Example 43, N^5-[4-[2-(difluoromethyl)-4-methoxy-1H-benzimidazol-1-yl]-6-(4-morpholinyl)-1,3,5-triazin-2-yl]-N^2-[3-(dimethylamino)propyl]-N^2-methyl-2,5-pyrimidinediamine] | < 100 nM | < 100 nM | 97 to 99 °C
13 | FC(F)c1nc2ccccc2n1-c1nc(-c2cncnc2)cc(N2CCOCC2)n1 [Example 55, 2-[2-(difluoromethyl)-1H-benzimidazol-1-yl]-6-(4-morpholinyl)-4,5′-bipyrimidine] | 100 to 1000 nM | 100 to 1000 nM | 209 to 211 °C
14 | COc1cccc2c1nc(C(F)F)n2-c1nc(Nc2cccnc2)nc(N2CCOCC2)n1 (as salt: methanesulfonate) [Example 2, 4-[2-(difluoromethyl)-4-methoxy-1H-benzimidazol-1-yl]-6-(4-morpholinyl)-N-(3-pyridinyl)-1,3,5-triazin-2-amine] | – | – | 279 to 282 °C
15 | COc1cc(N)cc2c1nc(C(F)F)n2-c1nc(N2CCOCC2)nc(-n2cccn2)n1 [Example 64, 2-(Difluoromethyl)-4-methoxy-1-[4-(4-morpholinyl)-6-(1H-pyrazol-1-yl)-1,3,5-triazin-2-yl]-1H-benzimidazol-6-ylamine] | < 100 nM | < 100 nM | –
16 | FC(F)c1nc2ccccc2n1-c1nc(-c2cccnc2)cc(N2CCOCC2)n1 [Example 51, 2-(difluoromethyl)-1-[4-(4-morpholinyl)-6-(3-pyridinyl)-2-pyrimidinyl]-1H-benzimidazole] | 100 to 1000 nM | 100 to 1000 nM | 172 to 179 °C
17 | COc1cccc2c1nc(C(F)F)n2-c1nc(N2CCOCC2)c2ncn(-c3cncnc3)c2n1 [Example 60, 2-[2-(difluoromethyl)-4-methoxy-1H-benzimidazol-1-yl]-6-(4-morpholinyl)-9-(5-pyrimidinyl)-9H-purine] | < 100 nM | < 100 nM | 248 to 251 °C
18 | FC(F)c1nc2ccccc2n1-c1nc(Nc2cncnc2)nc(N2CCOCC2)n1 (as salt: methanesulfonate) [Example 35, 4-[2-(difluoromethyl)-1H-benzimidazol-1-yl]-6-(4-morpholinyl)-N-(5-pyrimidinyl)-1,3,5-triazin-2-amine] | – | – | 163 to 166 °C
19 | COc1cccc2c1nc(C(F)F)n2-c1nc(N2CCOCC2)nc(-n2ccnc2)n1 [Example 67, 2-(Difluoromethyl)-1-[4-(1H-imidazol-1-yl)-6-(4-morpholinyl)-1,3,5-triazin-2-yl]-4-methoxy-1H-benzimidazole] | – | – | 272 to 275 °C
20 | COc1cccc2c1nc(C(F)F)n2-c1nc(Nc2cnc(Cl)nc2)nc(N2CCOCC2)n1 [Example 41, N-(2-chloro-5-pyrimidinyl)-4-[2-(difluoromethyl)-4-methoxy-1H-benzimidazol-1-yl]-6-(4-morpholinyl)-1,3,5-triazin-2-amine] | < 100 nM | < 100 nM | 295 °C (dec.)
21 | COc1cccc2c1nc(C(F)F)n2-c1nc(N2CCOCC2)nc2c1ncn2-c1cncnc1 [Example 62, 6-[2-(Difluoromethyl)-4-methoxy-1H-benzimidazol-1-yl]-2-(4-morpholinyl)-9-(5-pyrimidinyl)-9H-purine] | – | – | 238 to 240 °C
22 | CN(c1cncnc1)c1nc(N2CCOCC2)nc(-n2c(C(F)F)nc3ccccc32)n1 [Example 44, 4-[2-(difluoromethyl)-1H-benzimidazol-1-yl]-N-methyl-6-(4-morpholinyl)-N-(5-pyrimidinyl)-1,3,5-triazin-2-amine] | < 100 nM | < 100 nM | 202 to 205 °C
23 | Nc1ncc(-c2cc(N3CCOCC3)nc(-n3c(C(F)F)nc4ccccc43)n2)cn1 [Example 58, 2-[2-(difluoromethyl)-1H-benzimidazol-1-yl]-6-(4-morpholinyl)-4,5′-bipyrimidine-2′-amine] | – | – | 281 to 285 °C
24 | COc1cccc2c1nc(C(F)F)n2-c1nc(-c2cncnc2)cc(N2CCOCC2)n1 [Example 56, 2-[2-(difluoromethyl)-4-methoxy-1H-benzimidazol-1-yl]-6-(4-morpholinyl)-4,5′-bipyrimidine] | < 100 nM | 100 to 1000 nM | 222 to 224 °C
25 | COc1cc(N)cc2c1nc(C(F)F)n2-c1nc(N2CCOCC2)nc(-n2cccn2)n1 (as salt: methanesulfonate) [Example 64, 2-(Difluoromethyl)-4-methoxy-1-[4-(4-morpholinyl)-6-(1H-pyrazol-1-yl)-1,3,5-triazin-2-yl]-1H-benzimidazol-6-ylamine] | – | – | > 300 °C
26 | COc1cccc2c1nc(C(F)F)n2-c1nc(N2CCOCC2)c2ncn(-c3cccnc3)c2n1 [Example 59, 2-[2-(difluoromethyl)-4-methoxy-1H-benzimidazol-1-yl]-6-(4-morpholinyl)-9-(3-pyridinyl)-9H-purine] | – | – | 229 to 231 °C
27 | COc1cc(N)cc2c1nc(C(F)F)n2-c1nc(-c2cccnc2)cc(N2CCOCC2)n1 (as salt: methanesulfonate) [Example 68, 2-(Difluoromethyl)-4-methoxy-1-[4-(4-morpholinyl)-6-(3-pyridinyl)-2-pyrimidinyl]-1H-benzimidazol-6-ylamine] | – | – | 246 °C (dec.)
